Test system: T1, rMaBGA (recombinant β-1,3-galactosidase MaBGA)
T1 construct: full-length ORF in pET-22b(+) NdeI/XhoI, 6xHis tag (C-terminal by vector and primer design), E. coli BL21(DE3), IMAC + SEC, 66 kDa on SDS-PAGE; primers imply N-terminus MKLGVCYY and native C-terminus AIWQEI before LE-His tag
Assay: ONP release at […] nm, nonlinear Michaelis-Menten fit
Format: biochemical, Marinomonas sp. BSi20414
Conditions: 50 mM PBS pH 7.0, 37 °C (general activity assay); 0.25-5 mM ONPG

Km: 6.85 mM
Compound: O=[N+]([O-])c1ccccc1O[C@@H]1O[C@H](CO)[C@H](O)[C@H](O)[C@H]1O [ONPG]

Source: paper PMC6267478, “Heterologous Expression of a Thermostable β-1,3-Galactosidase and Its Potential in Synthesis of Galactooligosaccharides” (Marine Drugs, 2018)
